Values quoted from earlier work as cited in article PMC8869242 (Biomedicines, 2022).
Like-named read-outs stand apart in the source and are kept apart here.

Experiments:
[1] = tested on: Ehrlich ascites carcinoma (EAC); details: cited from earlier work; for mice died during treatment: two injections per week for 2 weeks
[2] = tested on: endothelial cells (HUVEC); set-up: method as in PMID 34339726; details: cited from earlier work
[3] = tested on: CAM; set-up: method as in PMID 34339726; details: concentration of 5 mg/mL; cited from earlier work

SMILES	tumor volume reduction ([1]; 3 mg/kg, two injections per week for 2 weeks (cumulative 12 mg/kg)) [%]	mice died during treatment ([1]; 3 mg/kg)	concentration range showing inhibition of migration of endothelial cells (HUVEC) [2] [µM]	angiogenesis in CAM assay [3]	tumor volume reduction ([1]; i.p. 2 mg/kg, two injections per week for 2 weeks (cumulative 8 mg/kg)) [%]	mice died during treatment ([1]; i.p. 2 mg/kg)
O.O.O=C1[N-]S(=O)(=O)c2ccccc21.[Cl][Pd+].c1ccc(-c2cccc(-c3ccccn3)n2)nc1 [[PdCl(terpy)](sac)·2H2O]	69.8	1 of 9	12.5 to 50	inhibition of angiogenesis		
O.O.O.O.O=C1[N-]S(=O)(=O)c2ccccc21.O=C1c2ccccc2S(=O)(=O)[N]1[Pd+].c1ccc(-c2cccc(-c3ccccn3)n2)nc1 [[Pd(sac)(terpy)](sac)·4H2O]					67.5	1 of 10
